Laboratory results reported in ChEMBL document CHEMBL5705908, “Structural and chemical insights into the covalent-allosteric inhibition of the protein kinase Akt” (Chem Sci, 2019).
pEC50: −log10 of the molar value. Active and inactive are the calls of the source. The rule behind the calls is not given here.

Legend:
[1] = tested on: MCF7; experiment: Antiproliferative activity against human MCF7 cells assessed as reduction in cell viability incubated for 5 days by celltiter-glo assay; type: functional, cell-based; conditions: MCF7, 120 h
[2] = target: RAC-alpha serine/threonine-protein kinase (Homo sapiens) (UniProt P31749); experiment: Covalent-allosteric inhibition of full length N-terminal his6-tagged AKT (2 to 446 residues) (unknown origin) expressed in Spodoptera frugiperda Sf9 cells assessed as kinact
[3] = target: RAC-alpha serine/threonine-protein kinase (Homo sapiens) (UniProt P31749); experiment: Covalent-allosteric inhibition of full length N-terminal his6-tagged AKT (2 to 446 residues) (unknown origin) expressed in Spodoptera frugiperda Sf9 cells assessed as kinact/ki ratio
[4] = tested on: BT-474; experiment: Antiproliferative activity against human BT-474 cells assessed as reduction in cell viability incubated for 5 days by celltiter-glo assay; type: functional, cell-based; conditions: BT-474, 120 h
[5] = tested on: AN3-CA; experiment: Antiproliferative activity against human AN3-CA cells assessed as reduction in cell viability incubated for 5 days by celltiter-glo assay; type: functional, cell-based; conditions: 120 h
[6] = tested on: KU-19-19; experiment: Antiproliferative activity against human KU-19-19 cells assessed as reduction in cell viability incubated for 5 days by celltiter-glo assay; type: functional, cell-based; conditions: KU-19-19, 120 h
[7] = target: RAC-alpha serine/threonine-protein kinase (Homo sapiens) (UniProt P31749); experiment: Covalent-allosteric inhibition of full length N-terminal his6-tagged AKT (2 to 446 residues) (unknown origin) expressed in Spodoptera frugiperda Sf9 cells at 100 uM incubated for 1 hr by Mass spectrometry analysis

RAC-alpha serine/threonine-protein kinase (Homo sapiens), sequence (P31749 whole entry, the tested form may be a part): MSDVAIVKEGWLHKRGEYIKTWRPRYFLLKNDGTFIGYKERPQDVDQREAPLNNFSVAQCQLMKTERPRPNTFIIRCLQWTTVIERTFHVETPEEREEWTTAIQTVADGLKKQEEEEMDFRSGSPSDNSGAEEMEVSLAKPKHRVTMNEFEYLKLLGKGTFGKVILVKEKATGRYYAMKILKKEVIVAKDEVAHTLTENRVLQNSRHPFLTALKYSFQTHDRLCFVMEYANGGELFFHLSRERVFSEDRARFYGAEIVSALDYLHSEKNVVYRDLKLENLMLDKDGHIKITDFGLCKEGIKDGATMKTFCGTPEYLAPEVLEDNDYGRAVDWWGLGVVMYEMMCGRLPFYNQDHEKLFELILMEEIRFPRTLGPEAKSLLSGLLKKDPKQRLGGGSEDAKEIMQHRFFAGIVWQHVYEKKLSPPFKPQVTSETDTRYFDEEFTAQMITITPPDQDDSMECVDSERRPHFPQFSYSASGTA

Row | SMILES | Kinact [2] [min⁻¹] | Ratio [3] [µM⁻¹ s⁻¹] | pEC50 [6] | further results
1 | CN(C)C/C=C/C(=O)Nc1ccc2[nH]c(=O)n(C3CCN(Cc4ccc(-c5nc6cc[nH]c(=O)c6cc5-c5ccccc5)cc4)CC3)c2c1 | 0.05 | 0.025 | – | pEC50 [1]: 4.69; pEC50 [4]: 4.92; pEC50 [5]: 4.81
2 | C=CC(=O)Nc1ccc(C(=O)NC2CCN(Cc3ccc(-c4nc5cc[nH]c(=O)c5cc4-c4ccccc4)cc3)CC2)cc1 | 0.042 | 0.002 | 4.95 | –
3 | CC(C)NC[C@@H](C(=O)N1CCN(c2ncnc3c2[C@H](C)C[C@H]3O)CC1)c1ccc(Cl)cc1 [IPATASERTIB] | – | – | 4.62 | –
4 | C=CC(=O)Nc1ccc2[nH]c(=O)n(C3CCN(Cc4ccc(-c5nc6cc[nH]c(=O)c6cc5-c5ccccc5)cc4)CC3)c2c1 | – | – | – | inhibition [7]: Active
5 | C=CC(=O)Nc1ccc(C(=O)NC2CCN(Cc3ccc(-c4nc5cc[nH]c(=O)c5cc4-c4ccccc4)cc3)CC2)s1 | 0.088 | 0.038 | – | –
6 | C=CC(=O)Nc1cccc(C(=O)NC2CCN(Cc3ccc(-c4nc5cc[nH]c(=O)c5cc4-c4ccccc4)cc3)CC2)c1 | – | – | 4.83 | –
7 | C=CC(=O)Nc1ccc2c(c1)n(C1CCN(Cc3ccc(-c4nc5cc[nH]c(=O)c5cc4-c4ccccc4)cc3)CC1)c(=O)n2C | 0.121 | 0.19 | – | inhibition [7]: Active
8 | NC1(C(=O)N[C@@H](CCO)c2ccc(Cl)cc2)CCN(c2nc[nH]c3nccc2-3)CC1 [CAPIVASERTIB] | – | – | 4.68 | –
9 | C=CC(=O)Nc1cc(Br)cc(C(=O)NC2CCN(Cc3ccc(-c4nc5cc[nH]c(=O)c5cc4-c4ccccc4)cc3)CC2)c1 | 0.078 | 0.168 | – | –
10 | C=CC(=O)Nc1cccc(CNC2CCN(Cc3ccc(-c4nc5cc[nH]c(=O)c5cc4-c4ccccc4)cc3)CC2)c1 | 0.071 | 0.004 | – | –
11 | C=CC(=O)Nc1ccccc1C(=O)NC1CCN(Cc2ccc(-c3nc4cc[nH]c(=O)c4cc3-c3ccccc3)cc2)CC1 | 0.138 | 0.085 | – | –
12 | C=CC(=O)Nc1ccc(C(=O)NC2CCN(Cc3ccc(-c4nc5cc[nH]c(=O)c5cc4-c4ccccc4)cc3)CC2)c(F)c1 | 0.085 | 0.014 | – | –
